Laboratory results published in US10435405B2, “Pyrazolopyridine compounds and uses thereof” (Incyte Corporation, priority 2016, dated 2019).
pKi: −log10 of the molar value.

What follows are molecules tested against HPK1 (Homo sapiens (Human), UniProt Q92918) (assay: HPK1 Kinase Binding Assay).
In short: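 Active HPK1 (added as 4 nM solution) was combined with compound (3-fold, 11-point series) and tracer 222 (18 nM) plus Eu-anti-GST antibody (4 nM) in 50 mM HEPES pH 7.5 with MgCl2 and DTT. After 1 h at 25 °C plates were read. Ki values were derived.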

Chain of HPK1 (Q92918 1-346): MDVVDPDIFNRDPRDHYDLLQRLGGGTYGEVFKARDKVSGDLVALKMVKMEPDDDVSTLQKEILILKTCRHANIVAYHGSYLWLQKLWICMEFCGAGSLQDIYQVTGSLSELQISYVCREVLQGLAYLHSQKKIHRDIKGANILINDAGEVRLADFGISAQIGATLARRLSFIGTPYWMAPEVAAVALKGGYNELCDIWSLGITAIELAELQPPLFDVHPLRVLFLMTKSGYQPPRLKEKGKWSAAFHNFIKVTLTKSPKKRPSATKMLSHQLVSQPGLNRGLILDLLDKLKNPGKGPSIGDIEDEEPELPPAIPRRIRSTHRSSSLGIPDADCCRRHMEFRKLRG

| pKi | Compound |
| --- | --- |
| ≥ 7.00 | Cn1cc(-c2n[nH]c3cnc(-c4c(F)ccc(NC(=O)Cc5ccccc5)c4F)cc23)cn1 [Example 60, N-(2,4-Difluoro-3-(3-(1-methyl-1H-pyrazol-4-yl)-1H-pyrazolo[3,4-c]pyridin-5-yl)phenyl)-2-phenylacetamide] |
| ≥ 7.00 | CNCc1cc(F)c(-c2cc3c(-c4ccc(N5CCN(C)CC5)nc4)n[nH]c3cn2)c(C(F)(F)F)c1 [Example 119, 1-(3-Fluoro-4-(3-(6-(4-methylpiperazin-1-yl)pyridin-3-yl)-1H-pyrazolo[3,4-c]pyridin-5-yl)-5-(trifluoromethyl)phenyl)-N-methylmethanamine] |
| ≥ 7.00 | COc1cccc(F)c1-c1cc2c(NC(=O)c3ccc(N4CCN(CC(F)(F)F)C(=O)C4)cc3)n[nH]c2cn1 [Example 29, N-(5-(2-Fluoro-6-methoxyphenyl)-1H-pyrazolo[3,4-c]pyridin-3-yl)-4-(3-oxo-4-(2,2,2-trifluoroethyl)piperazin-1-yl)benzamide] |
| ≥ 7.00 | Cc1cc(C2COCCN2)cc(F)c1-c1cc2c(-c3cnn(C)c3)n[nH]c2cn1 (stereo not drawn) [Example 234, 3-(3-Fluoro-5-methyl-4-(3-(1-methyl-1H-pyrazol-4-yl)-1H-pyrazolo[3,4-c]pyridin-5-yl)phenyl)morpholine] |
| ≥ 7.00 | CNCc1ccc(C)c(-c2cc3c(-c4cnn(C)c4)n[nH]c3cn2)c1 [Example 87, N-Methyl-1-(4-methyl-3-(3-(1-methyl-1H-pyrazol-4-yl)-1H-pyrazolo[3,4-c]pyridin-5-yl)phenyl)methanamine] |
| ≥ 7.00 | CNCc1cc(C)c(-c2cc3c(-c4cnn(-c5ccccc5C#N)c4)n[nH]c3cn2)c(F)c1 [Example 135, 2-(4-(5-(2-Fluoro-6-methyl-4-((methylamino)methyl)phenyl)-1H-pyrazolo[3,4-c]pyridin-3-yl)-1H-pyrazol-1-yl)benzonitrile] |
| ≥ 7.00 | CC(C)NCc1cc(F)c(-c2cc3c(-c4cnn(C)c4)n[nH]c3cn2)c(F)c1 [Example 123, N-(3,5-Difluoro-4-(3-(1-methyl-1H-pyrazol-4-yl)-1H-pyrazolo[3,4-c]pyridin-5-yl)benzyl)propan-2-amine] |
| ≥ 7.00 | COc1cccc(F)c1-c1cc2c(/C=C/c3ccc(Br)cc3)n[nH]c2cn1 [Example 116, 3-(4-Bromostyryl)-5-(2-fluoro-6-methoxyphenyl)-1H-pyrazolo[3,4-c]pyridine] |
| ≥ 7.00 | CNC1CCc2cc(F)c(-c3cc4c(-c5ccc(N6CCN(C)CC6)cc5)n[nH]c4cn3)c(F)c2C1 (stereo not drawn) [Example 199, 6,8-Difluoro-N-methyl-7-(3-(4-(4-methylpiperazin-1-yl)phenyl)-1H-pyrazolo[3,4-c]pyridin-5-yl)-1,2,3,4-tetrahydronaphthalen-2-amine] |
| ≥ 7.00 | CNCc1ccc(F)c(-c2cc3c(-c4cnn(C)c4)n[nH]c3cn2)c1F [Example 127, 1-(2,4-Difluoro-3-(3-(1-methyl-1H-pyrazol-4-yl)-1H-pyrazolo[3,4-c]pyridin-5-yl)phenyl)-N-methylmethanamine] |
| ≥ 7.00 | COc1cccc(F)c1-c1cc2c(NC(=O)c3ccccc3)n[nH]c2cn1 [Example 1, N-(5-(2-Fluoro-6-methoxyphenyl)-1H-pyrazolo[3,4-c]pyridin-3-yl)benzamide] |
| ≥ 7.00 | CO[C@H]1C[C@H](NCc2ccc(F)c(-c3cc4c(-c5cnn(C)c5)n[nH]c4cn3)c2C)C1 [Example 222, trans-N-(4-Fluoro-2-methyl-3-(3-(1-methyl-1H-pyrazol-4-yl)-1H-pyrazolo[3,4-c]pyridin-5-yl)benzyl)-3-methoxycyclobutanamine] |
| ≥ 7.00 | Cn1cc(-c2n[nH]c3cnc(-c4c(F)cc(OC5CCOCC5)cc4F)cc23)cn1 [Example 107, 5-(2,6-Difluoro-4-(tetrahydro-2H-pyran-4-yloxy)phenyl)-3-(1-methyl-1H-pyrazol-4-yl)-1H-pyrazolo[3,4-c]pyridine] |
| ≥ 7.00 | Cn1cc(-c2n[nH]c3cnc(-c4c(F)ccc5c4CCCC5N)cc23)cn1 (stereo not drawn) [Example 210, 6-Fluoro-5-(3-(1-methyl-1H-pyrazol-4-yl)-1H-pyrazolo[3,4-c]pyridin-5-yl)-1,2,3,4-tetrahydronaphthalen-1-amine] |
| ≥ 7.00 | Cc1cc(CNC2CC2)cc(F)c1-c1cc2c(-c3cnn(C)c3)n[nH]c2cn1 [Example 177, N-(3-Fluoro-5-methyl-4-(3-(1-methyl-1H-pyrazol-4-yl)-1H-pyrazolo[3,4-c]pyridin-5-yl)benzyl)cyclopropanamine] |
| ≥ 7.00 | Cn1cc(-c2n[nH]c3cnc(-c4c(F)cc(NC(=O)CN5CCC5)c(F)c4F)cc23)cn1 [Example 77, 2-(Azetidin-1-yl)-N-(2,3,5-trifluoro-4-(3-(1-methyl-1H-pyrazol-4-yl)-1H-pyrazolo[3,4-c]pyridin-5-yl)phenyl)acetamide] |

| pKi | Compound |
| --- | --- |
| ≥ 7.00 | CNC(=O)c1ccc(-c2n[nH]c3cnc(-c4c(F)cccc4OC)cc23)cc1C [Example 103, 4-(5-(2-Fluoro-6-methoxyphenyl)-1H-pyrazolo[3,4-c]pyridin-3-yl)-N,2-dimethylbenzamide] |
| ≥ 7.00 | CNCc1cc(C)c(-c2cc3c(-c4cnn(C)c4)n[nH]c3cn2)c(F)c1 [Example 168, 1-(3-Fluoro-5-methyl-4-(3-(1-methyl-1H-pyrazol-4-yl)-1H-pyrazolo[3,4-c]pyridin-5-yl)phenyl)-N-methylmethanamine] |
| ≥ 7.00 | COc1cccc(F)c1-c1cc2c(NC(=O)c3cccc(N4CCNCC4)c3)n[nH]c2cn1 [Example 23, N-(5-(2-fluoro-6-methoxyphenyl)-1H-pyrazolo[3,4-c]pyridin-3-yl)-3-(piperazin-1-yl)benzamide] |
| ≥ 7.00 | COc1cc(N2CCN(C)CC2)ccc1C(=O)Nc1n[nH]c2cnc(-c3c(F)cc(CNC(C)C)cc3F)cc12 [Example 149, N-(5-(2,6-Difluoro-4-((isopropylamino)methyl)phenyl)-1H-pyrazolo[3,4-c]pyridin-3-yl)-2-methoxy-4-(4-methylpiperazin-1-yl)benzamide] |
| ≥ 7.00 | CN(C)c1cc(F)c(-c2cc3c(-c4cnn(C)c4)n[nH]c3cn2)c(F)c1 [Example 63, 3,5-Difluoro-N,N-dimethyl-4-(3-(1-methyl-1H-pyrazol-4-yl)-1H-pyrazolo[3,4-c]pyridin-5-yl)aniline] |
| ≥ 7.00 | Cn1cc(-c2n[nH]c3cnc(-c4c(F)cc(C5CCCN5)cc4C(F)(F)F)cc23)cn1 (single isomer, unassigned) [Example 226, 5-(2-Fluoro-4-(pyrrolidin-2-yl)-6-(trifluoromethyl)phenyl)-3-(1-methyl-1H-pyrazol-4-yl)-1H-pyrazolo[3,4-c]pyridine] |
| ≥ 7.00 | Cc1cc(CNCCO)cc(F)c1-c1cc2c(-c3cnn(C)c3)n[nH]c2cn1 [Example 180, 2-(3-Fluoro-5-methyl-4-(3-(1-methyl-1H-pyrazol-4-yl)-1H-pyrazolo[3,4-c]pyridin-5-yl)benzylamino)ethanol] |
| ≥ 7.00 | CNCc1cc(F)c(-c2cc3c(-c4ccc(N5CCC(O)CC5)nc4)n[nH]c3cn2)c(F)c1 [Example 166, 1-(5-(5-(2,6-Difluoro-4-((methylamino)methyl)phenyl)-1H-pyrazolo[3,4-c]pyridin-3-yl)pyridin-2-yl)piperidin-4-ol] |
| ≥ 7.00 | COc1cccc(F)c1-c1cc2c(NC(=O)c3ccc(N4CCN(C)CC4)cc3)n[nH]c2cn1 [Example 26, N-(5-(2-Fluoro-6-methoxyphenyl)-1H-pyrazolo[3,4-c]pyridin-3-yl)-4-(4-methylpiperazin-1-yl)benzamide] |
| ≥ 7.00 | CNCc1cc(F)c(-c2cc3c(-c4cnn(-c5ccccc5C#N)c4)n[nH]c3cn2)c(F)c1 [Example 161, 2-(4-(5-(2,6-Difluoro-4-((methylamino)methyl)phenyl)-1H-pyrazolo[3,4-c]pyridin-3-yl)-1H-pyrazol-1-yl)benzonitrile] |
| ≥ 7.00 | CNC1CCc2c1cc(C)c(-c1cc3c(-c4cnn(C)c4)n[nH]c3cn1)c2F (single isomer, unassigned) [Example 239, 4-Fluoro-N,6-dimethyl-5-(3-(1-methyl-1H-pyrazol-4-yl)-1H-pyrazolo[3,4-c]pyridin-5-yl)-2,3-dihydro-1H-inden-1-amine] |
| ≥ 7.00 | CNCc1cc(F)c(-c2cc3c(-c4cnc(N5CCC(O)CC5)nc4)n[nH]c3cn2)c(F)c1 [Example 218, 1-(5-(5-(2,6-Difluoro-4-((methylamino)methyl)phenyl)-1H-pyrazolo[3,4-c]pyridin-3-yl)pyrimidin-2-yl)piperidin-4-ol] |
| ≥ 7.00 | COC1CN(C(=O)c2cc(F)c(-c3cc4c(-c5cnn(C)c5)n[nH]c4cn3)c(F)c2)C1 [Example 58, (3,5-Difluoro-4-(3-(1-methyl-1H-pyrazol-4-yl)-1H-pyrazolo[3,4-c]pyridin-5-yl)phenyl)(3-methoxyazetidin-1-yl)methanone] |
| ≥ 7.00 | Cn1cc(-c2n[nH]c3cnc(-c4c(F)cc(NC(=O)CN5CCC5)cc4OC(F)F)cc23)cn1 [Example 72, 2-(Azetidin-1-yl)-N-(3-(difluoromethoxy)-5-fluoro-4-(3-(1-methyl-1H-pyrazol-4-yl)-1H-pyrazolo[3,4-c]pyridin-5-yl)phenyl)acetamide] |
| ≥ 7.00 | COC(=O)N1CCN(c2ccc(C(=O)Nc3n[nH]c4cnc(-c5c(F)cc(CNC(C)C)cc5F)cc34)cc2)CC1 [Example 147, Methyl 4-(4-(5-(2,6-difluoro-4-((isopropylamino)methyl)phenyl)-1H-pyrazolo[3,4-c]pyridin-3-ylcarbamoyl)phenyl)piperazine-1-carboxylate] |
| ≥ 7.00 | CC(C)N1CC(NCCc2cc(F)c(-c3cc4c(-c5cnn(C)c5)n[nH]c4cn3)c(F)c2)C1 [Example 99, N-(3,5-Difluoro-4-(3-(1-methyl-1H-pyrazol-4-yl)-1H-pyrazolo[3,4-c]pyridin-5-yl)phenethyl)-1-isopropylazetidin-3-amine] |

| Compound | pKi |
| --- | --- |
| CN(C)C(=O)Oc1cc(F)c(-c2cc3c(-c4cnn(C)c4)n[nH]c3cn2)c(F)c1 [Example 109, 3,5-Difluoro-4-(3-(1-methyl-1H-pyrazol-4-yl)-1H-pyrazolo[3,4-c]pyridin-5-yl)phenyl dimethylcarbamate] | ≥ 7.00 |
